Measured values published in patent publication US12157746B2, “Tetrahydro-1H-pyrazino[2,1-a]isoindolylquinoline compounds for the treatment of autoimmune disease” (F. HOFFMANN-LA ROCHE AG, priority 2018, dated 2024).

Biological target: T1, human TLR8 (Homo sapiens, UniProt Q9NR97)
T1 sequence (Q9NR97 27-1041): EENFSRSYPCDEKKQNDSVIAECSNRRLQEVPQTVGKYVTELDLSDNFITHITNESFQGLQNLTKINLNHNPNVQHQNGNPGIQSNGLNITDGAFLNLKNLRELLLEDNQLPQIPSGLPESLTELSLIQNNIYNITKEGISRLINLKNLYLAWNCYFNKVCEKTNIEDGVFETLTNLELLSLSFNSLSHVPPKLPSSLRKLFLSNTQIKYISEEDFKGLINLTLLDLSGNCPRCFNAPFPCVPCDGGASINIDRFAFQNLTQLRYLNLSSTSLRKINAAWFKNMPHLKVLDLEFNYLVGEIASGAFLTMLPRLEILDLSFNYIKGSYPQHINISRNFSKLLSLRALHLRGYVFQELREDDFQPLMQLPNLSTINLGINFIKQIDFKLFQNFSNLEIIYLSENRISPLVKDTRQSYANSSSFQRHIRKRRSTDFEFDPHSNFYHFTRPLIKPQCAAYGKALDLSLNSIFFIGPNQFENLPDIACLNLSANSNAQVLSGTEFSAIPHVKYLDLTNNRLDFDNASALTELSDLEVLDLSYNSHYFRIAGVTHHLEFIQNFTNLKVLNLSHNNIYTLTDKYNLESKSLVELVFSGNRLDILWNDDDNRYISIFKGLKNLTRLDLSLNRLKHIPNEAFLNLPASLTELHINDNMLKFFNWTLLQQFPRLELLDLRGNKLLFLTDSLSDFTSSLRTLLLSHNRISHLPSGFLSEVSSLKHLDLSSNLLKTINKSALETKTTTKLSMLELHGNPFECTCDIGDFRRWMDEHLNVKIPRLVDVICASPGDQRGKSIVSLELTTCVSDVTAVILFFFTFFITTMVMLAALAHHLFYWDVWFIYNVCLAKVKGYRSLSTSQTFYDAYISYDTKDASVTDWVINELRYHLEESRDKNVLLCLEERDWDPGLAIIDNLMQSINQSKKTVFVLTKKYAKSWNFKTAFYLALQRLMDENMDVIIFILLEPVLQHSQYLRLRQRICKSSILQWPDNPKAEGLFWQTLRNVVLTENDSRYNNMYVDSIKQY
Test: HEK293-Blue-hTLR-8 cells assay
Assay type: cell-based
Settings: HEK293-Blue-hTLR8 cells, R848 stimulation, 20 hrs, SEAP reporter; read-out: HEK/hTLR8 IC50
In short: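 Antagonism read out in HEK293-Blue-hTLR8 cells carrying an NF-κB/AP-1-driven SEAP reporter, stimulated with R848 (10 μL of 60 uM stock added) alongside serially diluted compound (1% DMSO), 20 h at 37° C. Supernatant SEAP measured with QUANTI-Blue after 2 h at 37° C, absorbance at 620-655 nm.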

Structure (SMILES)	IC50
C[C@@H]1CN(c2ccc(C#N)c3ncccc23)C[C@@H]2c3ccc(N[C@H]4CNCCOC4)cc3CN12 [Example 56B, 5-[(4R,10bS)-4-methyl-8-[[(6S)-1,4-oxazepan-6-yl]amino]-3,4,6,10b-tetrahydro-1H-pyrazino[2,1-a]isoindol-2-yl]quinoline-8-carbonitrile]	< 3.2 nM
Cc1ccc(N2C[C@@H](C)N3Cc4cc(N[C@H]5CNC[C@H]5F)ccc4[C@H]3C2)c2cccnc12 [Example 75, (4R,10bS)—N-[(3S,4R)-4-fluoropyrrolidin-3-yl]-4-methyl-2-(8-methyl-5-quinolyl)-3,4,6,10b-tetrahydro-1H-pyrazino[2,1-a]isoindol-8-amine]	12.4 nM
C[C@@H]1CN(c2ccc(C#N)c3ncccc23)C[C@@H]2c3ccc(NCCN4CC[C@H](O)C4)cc3CN12 [Example 68, 5-[(4R,10bS)-8-[2-[(3S)-3-hydroxypyrrolidin-1-yl]ethylamino]-4-methyl-3,4,6,10b-tetrahydro-1H-pyrazino[2,1-a]isoindol-2-yl]quinoline-8-carbonitrile]	< 3.2 nM
CO[C@H]1CNCC[C@H]1Nc1ccc2c(c1)CN1[C@H](C)CN(c3ccc(C#N)c4ncccc34)C[C@H]21 [Example 66, 5-[(4R,10bS)-8-[[(3S,4R)-3-methoxy-4-piperidyl]amino]-4-methyl-3,4,6,10b-tetrahydro-1H-pyrazino[2,1-a]isoindol-2-yl]quinoline-8-carbonitrile]	< 3.2 nM
N#Cc1ccc(N2CCN3Cc4cc(N5CCNCC5)ccc4C3C2)c2cccnc12 (stereo not shown) [Example 3, 5-(8-piperazin-1-yl-3,4,6,10b-tetrahydro-1H-pyrazino[2,1-a]isoindol-2-yl)quinoline-8-carbonitrile]	< 3.2 nM
C[C@@H]1CN(c2ccc(C#N)c3ncccc23)C[C@@H]2c3cc(F)c(N4CC5CNCC(C4)O5)cc3CN12 [Example 85, 5-[(4R,10bS)-9-fluoro-4-methyl-8-(9-oxa-3,7-diazabicyclo[3.3.1]nonan-3-yl)-3,4,6,10b-tetrahydro-1H-pyrazino[2,1-a]isoindol-2-yl]quinoline-8-carbonitrile]	9.2 nM
C[C@@H]1CN(c2ccc(C#N)c3ncccc23)C[C@@H]2c3ccc(N4C[C@H]5CNCCN5C4=O)cc3CN12 [Example 72, 5-[(4R,10bS)-8-[(8aR)-3-oxo-1,5,6,7,8,8a-hexahydroimidazo[1,5-a]pyrazin-2-yl]-4-methyl-3,4,6,10b-tetrahydro-1H-pyrazino[2,1-a]isoindol-2-yl]quinoline-8-carbonitrile]	< 3.2 nM
C[C@H]1CN(c2ccc(C#N)c3ncccc23)C[C@H]2c3ccc(N4CCNCC4)cc3CN12 [Example 2, 5-[(4S,10bR)-4-methyl-8-piperazin-1-yl-3,4,6,10b-tetrahydro-1H-pyrazino[2,1-a]isoindol-2-yl]quinoline-8-carbonitrile]	< 3.2 nM
Cc1ccc(N2C[C@@H](C)N3Cc4cc(N[C@H]5CNC[C@H]5F)ccc4[C@H]3C2)c2nccnc12 [Example 76, (4R,10bS)—N-[(3S,4R)-4-fluoropyrrolidin-3-yl]-4-methyl-2-(8-methylquinoxalin-5-yl)-3,4,6,10b-tetrahydro-1H-pyrazino[2,1-a]isoindol-8-amine]	12.7 nM
C[C@@H]1CN(c2ccc(C#N)c3ncccc23)C[C@@H]2c3cccc(NCCN4CC[C@H](O)C4)c3CN12 [Example 80, 5-[(4R,10bS)-7-[2-[(3S)-3-hydroxypyrrolidin-1-yl]ethylamino]-4-methyl-3,4,6,10b-tetrahydro-1H-pyrazino[2,1-a]isoindol-2-yl]quinoline-8-carbonitrile]	< 3.2 nM
C[C@@H]1CN(c2ccc(C#N)c3ncccc23)C[C@@H]2c3ccc(NC[C@H]4CNCCO4)cc3CN12 [Example 59, 5-[(4R,10bS)-4-methyl-8-[[(2R)-morpholin-2-yl]methylamino]-3,4,6,10b-tetrahydro-1H-pyrazino[2,1-a]isoindol-2-yl]quinoline-8-carbonitrile]	< 3.2 nM
CO[C@@H]1CNC[C@@H]1Nc1ccc2c(c1)CN1[C@H](C)CN(c3ccc(C#N)c4ncccc34)C[C@H]21 [Example 60, 5-[(4R,10bS)-8-[[(3S,4R)-4-methoxypyrrolidin-3-yl]amino]-4-methyl-3,4,6,10b-tetrahydro-1H-pyrazino[2,1-a]isoindol-2-yl]quinoline-8-carbonitrile]	< 3.2 nM
C[C@@H]1CN(c2ccc(C#N)c3ncccc23)C[C@@H]2c3cccc(N[C@H]4CNC[C@H]4F)c3CN12 [Example 81, 5-[(4R,10bS)-7-[[(3S,4R)-4-fluoropyrrolidin-3-yl]amino]-4-methyl-3,4,6,10b-tetrahydro-1H-pyrazino[2,1-a]isoindol-2-yl]quinoline-8-carbonitrile]	< 3.2 nM

The remaining lines, values ahead:

IC50	Structure (SMILES)
0.5 nM	C[C@@H]1CN(c2ccc(C#N)c3ncccc23)C[C@@H]2c3ccc(NC[C@@H]4C[C@H](F)CN4)cc3CN12 [Example 70, 5-[(4R,10bS)-8-[[(2S,4S)-4-fluoropyrrolidin-2-yl]methylamino]-4-methyl-3,4,6,10b-tetrahydro-1H-pyrazino[2,1-a]isoindol-2-yl]quinoline-8-carbonitrile]
< 3.2 nM	C[C@@H]1CN(c2ccc(C#N)c3ncccc23)C[C@@H]2c3ccc(N4C[C@@H]5CNCCN5C4=O)cc3CN12 [Example 71, 5-[(4R,10bS)-8-[(8aS)-3-oxo-1,5,6,7,8,8a-hexahydroimidazo[1,5-a]pyrazin-2-yl]-4-methyl-3,4,6,10b-tetrahydro-1H-pyrazino[2,1-a]isoindol-2-yl]quinoline-8-carbonitrile]
< 0.3 nM	C[C@@H]1CN(c2ccc(C#N)c3ncccc23)C[C@@H]2c3ccc(OC[C@@H]4C[C@H](F)CN4)cc3CN12 [Example 74, 5-[(4R,10bS)-8-[[(2S,4S)-4-fluoropyrrolidin-2-yl]methoxy]-4-methyl-3,4,6,10b-tetrahydro-1H-pyrazino[2,1-a]isoindol-2-yl]quinoline-8-carbonitrile]
< 3.2 nM	C[C@@H]1CN(c2ccc(C#N)c3ncccc23)C[C@@H]2c3ccc(NCC4(F)CNC4)cc3CN12 [Example 69, 5-[(4R,10bS)-8-[(3-fluoroazetidin-3-yl)methylamino]-4-methyl-3,4,6,10b-tetrahydro-1H-pyrazino[2,1-a]isoindol-2-yl]quinoline-8-carbonitrile]
< 3.2 nM	C[C@@H]1CN(c2ccc(C(F)(F)F)c3nccnc23)C[C@@H]2c3ccc(N[C@H]4CNC[C@H]4F)cc3CN12 [Example 77, (4R,10bS)—N-[(3S,4R)-4-fluoropyrrolidin-3-yl]-4-methyl-2-[8-(trifluoromethyl)quinoxalin-5-yl]-3,4,6,10b-tetrahydro-1H-pyrazino[2,1-a]isoindol-8-amine]
< 3.2 nM	C[C@@H]1CN(c2ccc(C#N)c3ncccc23)C[C@@H]2c3ccc(NC[C@@H]4CNCCO4)cc3CN12 [Example 58, 5-[(4R,10bS)-4-methyl-8-[[(2S)-morpholin-2-yl]methylamino]-3,4,6,10b-tetrahydro-1H-pyrazino[2,1-a]isoindol-2-yl]quinoline-8-carbonitrile]
< 0.3 nM	[2H]c1ccc2c(N3C[C@@H](C)N4Cc5cc(N6CC7(CNCCO7)C6)ccc5[C@H]4C3)ccc(C#N)c2n1 [Example 90, 5-[(4R,10bS)-4-methyl-8-(5-oxa-2,8-diazaspiro[3.5]nonan-2-yl)-3,4,6,10b-tetrahydro-1H-pyrazino[2,1-a]isoindol-2-yl]-2-deuterio-quinoline-8-carbonitrile]
0.4 nM	C[C@@H]1CN(c2ccc(C#N)c3ncsc23)C[C@@H]2c3ccc(N[C@H]4CNC[C@H]4F)cc3CN12 [Example 78, 7-[(4R,10bS)-8-[[(3S,4R)-4-fluoropyrrolidin-3-yl]amino]-4-methyl-3,4,6,10b-tetrahydro-1H-pyrazino[2,1-a]isoindol-2-yl]-1,3-benzothiazole-4-carbonitrile]
2.8 nM	C[C@@H]1CN(c2ccc(Cl)c3ncccc23)C[C@@H]2c3ccc(N[C@H]4CNC[C@H]4F)cc3CN12 [Example 79, (4R,10b)-2-(8-chloro-5-quinolyl)-N-[(3S,4R)-4-fluoropyrrolidin-3-yl]-4-methyl-3,4,6,10b-tetrahydro-1H-pyrazino[2,1-a]isoindol-8-amine]
